Results taken from patent US20050233304A1, “Method of screening remedy for renal failure” (YAMANOUCHI PHARMACEUTICAL CO., LTD., priority 2002, published 2005).

Experiments:
Type in all cases: cell-based
[1] = target: T1, human FGK (Homo sapiens, UniProt Q9BXA5, A284G/P282A); test: Screening of substances inhibiting FGK activity: pEF-BOS-Gqi + pSRE-luc luciferase reporter in HEK293 cells transfected with human FGK; settings: pEF-BOS-Gqi and human FGK plasmid, 24 hours with compound, DMSO control = 100%, read-out: Example 5 Inhibition of pGqi + pSRE-luc reporter activity IC50
T1 construct: A complete cDNA coding for the FGK of the present invention was obtained by PCR using a human kidney cDNA; expressed in transfected cells; host or cells: HEK293 cells (ATCC), transient transfection with FuGENE6
T1 sequence (Q9BXA5 5-334 P282A/A284G): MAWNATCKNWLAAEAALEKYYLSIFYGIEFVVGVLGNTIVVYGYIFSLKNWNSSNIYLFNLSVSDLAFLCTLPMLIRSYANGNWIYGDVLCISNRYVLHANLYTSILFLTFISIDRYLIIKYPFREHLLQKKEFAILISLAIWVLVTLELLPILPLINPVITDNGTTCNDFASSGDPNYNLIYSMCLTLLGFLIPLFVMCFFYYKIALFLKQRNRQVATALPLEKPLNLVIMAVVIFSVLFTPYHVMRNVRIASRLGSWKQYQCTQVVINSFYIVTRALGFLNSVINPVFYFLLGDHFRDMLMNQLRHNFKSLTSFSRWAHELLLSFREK
Method: An expression plasmid used in the Example for expressing a chimeric protein of Gq and Gi was prepared by cloning, a gene (hereinafter, to be referred to as Gqi gene) constructed by replacing 5 amino acids in the Gq C-terminal side (Glu-Tyr-Asn-Leu-Val; the amino acid sequence represented by SEQ ID NO:15) with 5 amino acids in the Gi C-terminal side (Asp-Cys-Gly-Leu-Phe; the amino acid sequence represented by SEQ ID NO:16) in accordance with the method of Conklin, B. R. et al. (Nature, 363, 274-276, 1993) into the plasmid pEF-BOS-dhfr. The constructed plasmid was named pEF-BOS-Gqi.
As the illustrative method, firstly, using Dulbecco's modified Eagle's medium (DMEM) containing 10% fetal bovine serum, HEK293 cells (obtained from ATCC) were dispensed in 1×10^5 cells per well portions into a 24-well plate (Asahi Technbglass) and cultured for 24 hours. Then transfection of 0.05 μg of a reporter plasmid pSRE-luc in which a serum response sequence was inserted into upstream of a luciferase gene (PathDetect™ SRE cis-Reporting System; Stratagene), 0.05 μg of pEF-BOS-Gqi and 0.5 μg at the maximum of a human FGK expression plasmid which is 0.6 μg in total per well was carried out using a transfection reagent (FuGENE6; Boehringer-Roche). Cells transfected with the pcDNA3.1 vector alone without containing FGK, together with the reporter plasmid and pEF-BOS-Gqi, was used as the control. Other conditions and measurement of the reporter activity were as described in Example 3. Increase in the reporter activity by the expression of FGK was observed. Additionally, dose-dependent activation by FGK was also observed.
Screening of a test substance was carried out using the screening system which uses changes in FGK activity as the index, constructed in Example 4.
Using 10% fetal bovine serum-containing Dulbecco's modified Eag;e's medium(DMEM),HEK293 cells(obtained from ATCC) were inoculated in 1×10^4 cells per well portions into a 96-well plate (Asahi Technoglass) and cultured at 37° C. for 24 hours. Transfection of 0.01 μg of the reporter plasmid pSRE-luc (Example 4), 0.03 μg of pEF-BOS-Gqi and 0.02 μg of a human FGK expression plasmid which is 0.06 μg in total per well was carried out using a transfection reagent (FuGENE6; Boehringer-Roche). After 6 hours of incubation at 37° C., a dimethyl sulfoxide solution of each test compound was added to become a final concentration of 30 μM, 10 μM, 3 μM, […], 0.3 μM or 0.1 μM, and then incubated at 37° C. for additional 24 hours. Thereafter, the reporter activity was measured to determine 50% activity inhibition concentration (IC50) of each test compound. As a control of the compound treatment, reporter activity when the same volume of dimethyl sulfoxide alone was added was regarded as 100%. Other conditions and measurement of reporter activity were as described in Example 4.

[2] = test system: CTGF mRNA expression; test: Inhibition of intrinsic CTGF mRNA expression in primary human proximal renal tubule epithelium cells (RPTEC), real time PCR; settings: 10 μM compound, 24 hours, CTGF/G3PDH, DMSO control = 100%
Method: Primary culture cells of human proximal renal tubule epithelium (RPTEC; Asahi Technoglass) were plated at 2×10^5 cells per well into 12-well plates (Asahi Technoglass) using a proliferation medium for kidney epithelial cell use (Burette Kit REGM; Asahi Technoglass). After incubation for 24 hours at 37° C., each of the test compounds obtained in Example 5 (substances which inhibit FGK activity, namely FGK inverse agonists) was added thereto to a final concentration of 10 μM, and then incubated for additional 24 hours at 37° C. Thereafter, the cells were collected and the total RNA was purified using a spin column (RNeasy Mini Kit; Qiagen). Reverse transcription reaction was carried out using 1.5 μg of the total RNA and a reverse transcriptase (PowerScript Transcriptase; BD Biosciences) to obtain cDNA samples. Using each of them as the template, expressed amounts of CTGF and a housekeeping gene of glyceraldehyde 3-phosphate dehydrogenase (to be referred to as G3PDH hereinafter) were measured by real time PCR using PRISM 7700 Sequence Detector (PERKIN ELMER). In the PCR, SYBR Green PCR Master Mix (Applied Biosystems) was used, and after heating at 50° C. (2 minutes) and 95° C. (10 minutes), a cycle of 95° C. (15 seconds)/60° C. (60 seconds) was repeated for 40 times. For the detection of CTGF, an oligonucleotide represented by SEQ ID NO:17 was used as the forward primer, and an oligonucleotide represented by SEQ ID NO:18 was used as the reverse primer. For the detection of G3PDH, an oligonucleotide represented by SEQ ID NO:19 was used as the forward primer and an oligonucleotide represented by SEQ ID NO:20 was used as the reverse primer. A value calculated by dividing the expressed amount of CTGF by the expressed amount of G3PDH, both obtained by the PCR, was defined as the CTGF expression quantity per unit RNA quantity. Also, as a control of the compound treatment, the CTGF expression quantity per unit RNA quantity when the same volume of dimethyl sulfoxide alone was added was regarded as 100%. The inhibitory activity of CTGF expression obtained by the assay (inhibitory activity at a compound concentration of 10 μM) is shown in Table 1.

[3] = test system: CTGF promoter activation by FGK; test: Inhibition of CTGF promoter activation by FGK: pCTGF-luc reporter in HEK293 cells transfected with human FGK; settings: HEK293 cells transfected with pCTGF-luc and human FGK plasmid; 24 hours with compound; DMSO control = 100%; read-out: Example 7 Inhibition of pCTGF-luc activity IC50
Method: Using Dulbecco's modified Eagle's medium (DMEM) containing 10% fetal bovine serum, HEK293 cells (obtained from ATCC) were dispensed in 1×10^5 cells per well portions into a 24-well plate (Asahi Technoglass) and cultured at 37° C. for 24 hours. Transfection of 0.1 μg of a reporter plasmid and 0.5 μg at the maximum of a human FGK expression plasmid which is 0.6 μg in total per well was carried out using a transfection reagent (FuGENE6; Boehringer-Roche) in accordance with the instructions attached thereto. In this case, the amount of the transfected genes in each of the all wells was adjusted to 0.6 μg in total per well by adding a plasmid vector (pcDNA3.1; Invitrogen). Cells transfected with the pcDNA3.1 vector alone without containing FGK, together with the reporter plasmid, was used as the control. The medium was discarded 24 hours after transfection, and the residue was lysed by adding 100 μl per well of a cell lysis buffer. A […] portion of the lysate was mixed with 100 μl of a luciferin substrate solution and allowed to undergo the reaction to be measured using a luminometer (ML3000; Dynatech Laboratories). Activation of the CTGF promoter and COLIA2 promoter by the expression of FGK was observed. Additionslly, dose-dependent activation by FGK was also observed.
Screening of a test compound constructed in Example 3 was carried out using the CTGF promoter activation system by FGK.
HEK293 cells (obtained from ATCC) were plated at 1×10^4 cells per well into 96-well plates (Asahi Technoglass) in Dulbecco's modified Eagle's medium containing 10% fetal bovine serum (DMEM). After incubation for 24 hours at 37° C., cells were transfected with 0.02 μg of pCTGF-luc (cf. Example 2) and 0.02 μg of a human FGK expression plasmid which is 0.04 μg in total per well was carried out using a transfection reagent (FuGENE6; Boehringer-Roche). After incubation for 6 hours at 37° C., a dimethyl sulfoxide solution of each test compound was added thereto to become a final concentration of 30 µM, 10 μM, 3 μM, […], 0.3 μM or […], and then incubated at 37° C. for additional 24 hours. Thereafter, the reporter activity was measured to determine 50% activity inhibition concentration (IC50) of each test compound. As a control of the compound treatment, reporter activity when the same volume of dimethyl sulfoxide alone was added was regarded as 100%. Other conditions and measurement of reporter activity were as described in Example 3. Substances which inhibit CTGF promoter activation by FGK were selected, and the substances having an IC50 value of 10 μM or less were shown in Table 1. It was confirmed that a substance which inhibits CTGF expression by the assay system, namely a substance useful as a renal failure treating agent can be certainly be screened.

IC50 [1] | IC50 [3] | SMILES | Example 6 Inhibition Intrinsic CTGF mRNA Expression at 10 μM [2]
6.1 µM | 14.1 µM | CCOc1ccc(Nc2nc(-c3sc(N)nc3C)cs2)cc1 [No 1, N^2-(4-ethoxyphenyl)-4′-methyl-4,5′-bi-1,3-thiazole-2,2′-diamine] | 62%
4.6 µM | 16.1 µM | COc1ccc(Cl)cc1Nc1nc(-c2cccs2)cs1 [No 2, N-(5-chloro-2-methoxyphenyl)-4-(2-thienyl)-1,3-thiazole-2-amine] | 72%
0.6 µM | 2.6 µM | CC(=O)Nc1nc(C)c(-c2csc(Nc3cccc(C)c3)n2)s1 [No 3, N-[4′-methyl-2-[(3-methylphenyl)amino]-4,5′-bi-1,3-thiazol-2′-yl]acetamide hydrobromate] | 79%
3.9 µM | 3.6 µM | CC(=O)Nc1ccc(-c2csc(Nc3cccc(C(F)(F)F)c3)n2)cc1 [No 4, N-[4-(2-{[3-(trifluoromethyl)phenyl]amino}-1,3-thiazol-4-yl)phenyl]acetamide] | 65%
2.5 µM | 1.8 µM | CC(=O)Nc1nc(C)c(-c2csc(Nc3ccc(O)cc3)n2)s1 [No 5, N-{2-[(4-hydroxyphenyl)amino]-4′-methyl-4,5′-bi-1,3-thiazol-2′-yl}acetamide hydrobromate] | 81%
6.8 µM | 3.8 µM | CCOC(=O)c1c(C)nn(-c2ccc(NC(=O)c3ccccc3C(=O)O)cc2)c1C [No 6, 2-[({4-[4-(ethoxycarbonyl)-3,5-dimethyl-1H-pyrazol-1-yl]phenyl}amino)carbonyl]benzoic acid] | 35%
3.1 µM | 1.7 µM | Cc1cc(C(=O)C(F)(F)F)c(C)n1-c1ccc(NC(=O)c2ccccc2F)cc1 [No 7, N-{4-[2,5-dimethyl-3-(trifluoroacetyl)-1H-pyrrol-1-yl]phenyl}-2-fluorobenzamide] | 36%
